Reference: patent US20050009903A1, “CB2-selective cannabinoid analogues” (priority 2003, published 2005)
Values joined by “and” are separate entries in the source; they are usually repeats but may differ in a detail not shown here. Equal entries are not always repeated. Where two headings read alike, the source gives them in different places.

Key:
[1] = target: CB2 receptor (Homo sapiens, UniProt P34972); assay: CB2 assay: displacement of [3H]CP-55,940 from cloned human CB2 receptor preparation (transfected HEK 293 cells); assay type: binding; set-up: expressed in transfected cells; settings: for Ratio CB1/CB2 / Ratio CB17CB2: ratio of Ki values
[2] = target: T1, CB1 receptor (Rattus norvegicus, UniProt P20272); assay: CB1 assay: displacement of [3H]CP-55,940 from rat brain membrane preparation; assay type: binding
T1 construct: from tissue; host or cells: rat whole brain, P2 membranes

[3] = cloned human CB2, read-out: Ki at CB2 receptor
[4] = Table 1, mean ± SEM, rat brain membranes, [3H]CP 55,940, read-out: Ki CB1
[5] = Table 1, mean ± SEM, cloned human CB2, [3H]CP 55,940, read-out: Ki CB2
[6] = Ki CB2, Table 1, mean ± SEM, cloned human CB2, [3H]CP 55,940
[7] = Ki at CB2 receptor, cloned human CB2
[8] = rat brain membranes, read-out: Ki at CB1 receptor
[9] = Table 2, mean ± SEM, 3-(alkyl-1-naphthoyl)indoles, read-out: Ki CB2
[10] = Table 3, mean ± SEM, 3-(alkoxy-1-naphthoyl)indoles, the same values as Ki in nM, read-out: CB1 (receptor affinity)
[11] = Table 2, mean ± SEM, 3-(alkyl-1-naphthoyl)indoles, read-out: Ki CB1

T1 sequence (P20272 whole entry): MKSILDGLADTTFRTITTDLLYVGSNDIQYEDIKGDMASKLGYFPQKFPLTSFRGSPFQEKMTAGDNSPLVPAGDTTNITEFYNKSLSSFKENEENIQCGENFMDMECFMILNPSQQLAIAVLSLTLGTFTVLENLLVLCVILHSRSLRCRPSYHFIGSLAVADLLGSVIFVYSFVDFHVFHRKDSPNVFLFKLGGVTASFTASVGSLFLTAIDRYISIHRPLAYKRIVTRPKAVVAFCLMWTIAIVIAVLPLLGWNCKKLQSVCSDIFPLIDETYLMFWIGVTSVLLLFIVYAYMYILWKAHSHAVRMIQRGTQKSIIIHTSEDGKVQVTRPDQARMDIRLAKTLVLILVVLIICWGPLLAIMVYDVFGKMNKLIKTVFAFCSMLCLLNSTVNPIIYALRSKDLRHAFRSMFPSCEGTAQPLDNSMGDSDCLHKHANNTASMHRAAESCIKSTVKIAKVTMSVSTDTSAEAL
Chain of CB2 receptor (P34972 whole entry): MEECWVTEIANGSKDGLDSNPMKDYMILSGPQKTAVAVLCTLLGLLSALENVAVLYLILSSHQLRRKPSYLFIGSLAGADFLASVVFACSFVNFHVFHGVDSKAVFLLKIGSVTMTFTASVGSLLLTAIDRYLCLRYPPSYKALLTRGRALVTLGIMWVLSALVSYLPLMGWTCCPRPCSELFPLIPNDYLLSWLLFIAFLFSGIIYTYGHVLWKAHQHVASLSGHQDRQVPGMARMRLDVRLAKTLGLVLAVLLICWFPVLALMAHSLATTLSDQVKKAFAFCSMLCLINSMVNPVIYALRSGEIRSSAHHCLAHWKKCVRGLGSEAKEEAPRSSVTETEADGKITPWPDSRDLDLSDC

Row | SMILES | Ratio CB1/CB2 ([1]; Table 1) | Ki [1, 3] | Ki [2, 8] | Ratio CB17CB2 ([1]; Table 2) | further results
1 | COc1cc(C(C)(C)C)cc2c1C1CC(C)=CCC1C(C)(C)O2 (stereo not shown) [Compound 6a, 1-Methoxy-3-(1′,1′-dimethylethyl)-Δ^8-THC] | 5.4 | 1870 ± 867 nM |  |  | Ki [2, 4]: > 10000 nM
2 | CCC(C)(C)c1cc(OC)c2c(c1)OC(C)(C)C1CC=C(C)CC21 (stereo not shown) [Compound 6b, 1-Methoxy-3-(1′,1′-dimethylpropyl)-Δ^8-THC] | 7.1 |  |  |  | Ki [1, 5]: 1400 ± 66 nM; Ki [2, 4]: > 10000 nM
3 | CCCC(C)(C)c1cc(OC)c2c(c1)OC(C)(C)[C@@H]1CC=C(C)C[C@@H]21 [Compound 6c, 3-(1′,1′-Dimethylbutyl)-1-methoxy-Δ^8-THC] | 31 |  |  |  | Ki [1, 6]: 325 ± 70 nM; Ki [1, 7]: 1870 ± 867 nM; Ki [2]: > 10000 nM
4 | CCCCC(C)(C)c1cc(OC)c2c(c1)OC(C)(C)[C@@H]1CC=C(C)C[C@@H]21 [Compound 6d, 1-Methoxy-3-(1′,1′-dimethylpentyl)-Δ^8-THC] | 93 |  |  |  | Ki [1, 6]: 43 ± 3 nM; Ki [2]: 4000 ± 282 nM
5 | CC(C)(C)c1ccc2c(c1)OC(C)(C)C1CC=C(CO)CC21 (stereo not shown) [Compound 9a, 1-Deoxy-3-(1′,1′-dimethylethyl)-11-hydroxy-Δ^8-THC] |  | 18.1 ± 1.8 nM | 270 ± 58 nM |  | 
6 | CCC(C)(C)c1ccc2c(c1)OC(C)(C)[C@@H]1CC=C(CO)C[C@@H]21 [Compound 9b, 1-Deoxy-3-(1′,1′-dimethylpropyl)-11-hydroxy-Δ^8-THC] | 33 |  |  |  | selectivity for the CB2 receptor ([1]; CB2 over CB1 affinity): 25 fold; Ki [1, 7]: 5.6 ± 1.7 nM; Ki [2]: 187 ± 23 nM
7 | CCCC(C)(C)c1ccc2c(c1)OC(C)(C)[C@@H]1CC=C(CO)C[C@@H]21 [Compound 9c, 1-Deoxy-3-(1′,1′-dimethylbutyl)-11-hydroxy-Δ^8-THC] | 25 |  |  |  | Ki [1, 6]: 3.4 ± 0.5 nM; Ki [2]: 84 ± 16 nM
8 | CCCCC(C)(C)c1ccc2c(c1)OC(C)(C)C1CC=C(CO)CC21 (stereo not shown) [Compound 9d, 1-Deoxy-3-(1′,1′-dimethylpentyl)-11-hydroxy-Δ^8-THC] | 5.5 |  |  |  | Ki [1, 5]: 1.6 ± 0.03 nM; Ki [2, 4]: 8.8 ± 1.4 nM
9 | CCCCCC(C)(C)c1ccc2c(c1)OC(C)(C)C1CC=C(CO)CC21 (stereo not shown) [Compound 9e, 1-Deoxy-3-(1′,1′-dimethylhexyl)-11-hydroxy-Δ^8-THC] | 3.5 | 0.52 nM | 1.8 ± 0.3 nM |  | 
10 | COc1cc(C(C)(C)C)cc2c1[C@@H]1CC(CO)=CC[C@H]1C(C)(C)O2 [Compound 11a, 1-Methoxy-3-(1′,1′-dimethylethyl)-11-hydroxy-Δ^8-THC] | 5.6 |  |  |  | Ki [1, 7]: 333 ± 104 nM; Ki [2]: 1860 ± 148 nM
11 | CCC(C)(C)c1cc(OC)c2c(c1)OC(C)(C)C1CC=C(CO)CC21 (stereo not shown) [Compound 11b, 1-Methoxy-3-(1′,1′-dimethylpropyl)-11-hydroxy-Δ^8-THC] | 12 |  |  |  | Ki [1, 5]: 85 ± 21 nM; Ki [2, 4]: 1010 ± 117 nM
12 | CCCC(C)(C)c1cc(OC)c2c(c1)OC(C)(C)[C@@H]1CC=C(CO)C[C@@H]21 [Compound 11c, 1-Methoxy-3-(1′,1′-dimethylbutyl)-11-hydroxy-Δ^8-THC] | 12 |  |  |  | Ki [1, 6]: 28 ± 1 nM; Ki [2]: 347 ± 34 nM
13 | CCCCC(C)(C)c1cc(OC)c2c(c1)OC(C)(C)[C@@H]1CC=C(CO)C[C@@H]21 [Compound 11d, 1-Methoxy-3-(1′,1′-dimethylpentyl)-11-hydroxy-Δ^8-THC] | 9.1 |  |  |  | Ki [1, 6]: 4.4 ± 0.3 nM; Ki [1, 7]: 40 ± 6 nM; Ki [2]: 40 ± 6 nM
14 | CCCCCC(C)(C)c1cc(OC)c2c(c1)OC(C)(C)C1CC=C(CO)CC21 (stereo not shown) [Compound 11e, 1-Methoxy-3-(1′,1′-dimethylhexyl)-11-hydroxy-Δ^8-THC] | 11 | 1.4 nM and 1.2 nM | 15 nM and 14 nM |  | 
15 | CCCCCCC(C)(C)c1cc(OC)c2c(c1)OC(C)(C)[C@@H]1CC=C(CO)C[C@@H]21 [Compound 11f, 11-hydroxy-3-(1′,1′-dimethylheptyl)-1-methoxy-Δ^8-THC] | 14 |  |  |  | Ki [1, 7]: 1 nM and 1.2 nM; Ki [2]: 14 ± 3 nM
16 | CCCCCn1cc(C(=O)c2cccc3ccccc23)c2ccccc21 [JWH-018] |  |  |  | 3.3 | 
17 | CCCn1c(C)c(C(=O)c2cccc3ccc(C)cc23)c2ccccc21 [JWH-046, 2-methyl-1-propyl-3-(7-methyl-1-naphthoyl)indole] |  |  |  | 21 | 
18 | CCCCCn1c(C)c(C(=O)c2cccc3ccc(C)cc23)c2ccccc21 [JWH-048, 2-Methyl-1-pentyl-3-(7-methyl-1-naphthoyl) indole] |  |  |  | 22 | 
19 | CCCn1cc(C(=O)c2cccc3ccccc23)c2ccccc21 [JWH-072] |  |  |  | 6.2 | 

Row | SMILES | Ratio CB1/CB2 ([1]; Table 1) | Ki [1, 3] | Ki [2, 8] | Ratio CB17CB2 ([1]; Table 2) | further results
20 | CCCn1cc(C(=O)c2cccc3ccc(C)cc23)c2ccccc21 [JWH-076, 1-Propyl-3-(7-methyl-1-naphthoyl)indole] |  | 106 ± 46 nM | 214 ± 11 nM | 2.0 | 
21 | CCCCCn1cc(C(=O)c2ccc(C)c3ccccc23)c2ccccc21 [JWH-122] |  |  |  | 0.6 | Ki [1, 9]: 1.2 ± 1.2 nM
22 | CCCn1c(C)c(C(=O)c2ccc(C)c3ccccc23)c2ccccc21 [JWH-148, 2-Methyl-1-propyl-3-(4-methyl-1-naphthoyl)indole] |  | 14 ± 1 nM | 123 ± 8 nM | 8.8 | 
23 | CCCCCn1c(C)c(C(=O)c2ccc(C)c3ccccc23)c2ccccc21 [JWH-149] |  |  |  | 6.8 | Ki [1, 9]: 0.73 ± 0.03 nM
24 | CCCCCn1c(C)c(C(=O)c2cccc3cc(OC)ccc23)c2ccccc21 [JWH-153, 2-Methyl-1-pentyl-3-(6-methoxy-1-naphthoyl)indole] |  | 11 ± 1 nM |  |  | Ki [2]: 240 ± 24 nM; Ki [2, 10]: 250 ± 24 nM
25 | CCCCCn1c(C)c(C(=O)c2cccc3ccc(OC)cc23)c2ccccc21 [JWH-159, 2-Methyl-1-pentyl-3-(7-methoxy-1-naphthoyl)indole] |  | 10.4 ± 1.4 nM | 45 ± 1 nM |  | 
26 | CCCn1c(C)c(C(=O)c2cccc3ccc(OC)cc23)c2ccccc21 [JWH-160, 2-Methyl-1-propyl-3-(7-methoxy-1-naphthoyl)indole] |  |  | 1570 ± 201 nM |  | Ki ([1]; Table 3, mean ± SEM, 3-(alkoxy-1-naphthoyl)indoles, the same values as Ki in nM, read-out: CB2 (receptor affinity)): 441 ± 110 nM
27 | CCCn1cc(C(=O)c2cccc3cc(OC)ccc23)c2ccccc21 [JWH-163, 1-Propyl-3-(6-methoxy-1-naphthoyl)indole] |  | 138 ± 12 nM |  |  | Ki [2, 10]: 2360 ± 215 nM
28 | CCCCCn1cc(C(=O)c2cccc3ccc(OC)cc23)c2ccccc21 [JWH-164, 1-Pentyl-3-(7-methoxy-1-naphthoyl)indole] |  | 6.9 ± 0.2 nM | 6.6 ± 0.7 nM |  | 
29 | CCCn1cc(C(=O)c2cccc3ccc(OC)cc23)c2ccccc21 [JWH-165, 1-Propyl-3-(7-methoxy-1-naphthoyl)indole] |  | 71 ± 8 nM | 204 ± 26 nM |  | 
30 | CCCCCn1cc(C(=O)c2cccc3cc(OC)ccc23)c2ccccc21 [JWH-166, 1-Pentyl-3-(6-methoxy-1-naphthoyl)indole] |  | 1.9 ± 0.1 nM | 44 ± 10 nM |  | 
31 | CCCc1ccc(C(=O)c2cn(CCC)c3ccccc23)c2ccccc12 [JWH-180, 1-Propyl-3-(4-propyl-1-naphthoyl)indole] |  |  |  | 2.7 | Ki [1, 9]: 9.6 ± 2 nM; Ki [2, 11]: 26 ± 2 nM
32 | CCCCCn1c(C)c(C(=O)c2ccc(CCC)c3ccccc23)c2ccccc21 [JWH-181, 2-Methyl-1-pentyl-3-(4-propyl-1-naphthoyl)indole] |  | 0.62 ± 0.04 nM |  | 2.1 | Ki [2, 11]: 1.3 ± 0.1 nM
33 | CCCCCn1cc(C(=O)c2ccc(CCC)c3ccccc23)c2ccccc21 [JWH-182, 1-Pentyl-3-(4-propyl-1-naphthoyl)indole] |  |  |  | 0.6 | Ki [1, 9]: 1.1 ± 0.1 nM; Ki [2, 11]: 0.65 ± 0.03 nM
34 | CCCc1ccc(C(=O)c2c(C)n(CCC)c3ccccc23)c2ccccc12 [JWH-189, 2-Methyl-1-propyl-3-(4-propyl-1-naphthoyl)indole] |  |  |  | 4.3 | Ki [1, 9]: 12 ± 0.8 nM; Ki [2, 11]: 52 ± 2 nM
35 | CCCCCn1cc(C(=O)c2ccc(CC)c3ccccc23)c2ccccc21 [JWH-210, 1-Pentyl-3-(4-ethyl-1-naphthoyl)indole] |  |  | 0.46 ± 0.03 nM | 0.67 | Ki [1, 9]: 0.69 ± 0.01 nM
36 | CCCn1c(C)c(C(=O)c2ccc(CC)c3ccccc23)c2ccccc21 [JWH-211, 2-Methyl-1-propyl-3-(4-ethyl-1-naphthoyl)indole] |  | 12 ± 0.8 nM | 70 ± 0.8 nM | 5.8 | 
37 | CCCn1cc(C(=O)c2ccc(CC)c3ccccc23)c2ccccc21 [JWH-212, 1-Propyl-3-(4-ethyl-1-naphthoyl)indole] |  |  |  | 3.3 | Ki [1, 9]: 10 ± 1.2 nM; Ki [2, 11]: 33 ± 0.9 nM
